The record followed here is patent US20230026856A1, “HETEROCYCLIC COMPOUNDS AND METHODS OF USE THEREOF” (SPARCBIO LLC, priority 2020, published 2023).

The target in this experiment is KRAS G12C protein (Homo sapiens, UniProt P01116, G12C). Put plainly: Nucleotide exchange assay, Method III (TR-FRET, association of KRAS G12C with Raf-RBD, SOS1-mediated exchange). The following applies: overnight (18 hr) incubation with GDP-bound KRAS G12C. Format: biochemical. On the procedure:
Method III. Inhibition of SOS1-mediated exchange of GDP for GTP on the KRAS G12C protein was measured in a biochemical assay that monitors association of KRAS G12C protein with the Ras-binding domain of Raf (Raf-RBD), where the association is coupled to exchange of GDP to GTP on the KRAS G12C protein. The assay was performed at WuXi AppTec (Shanghai, China). Compounds were serially diluted in 3-fold dilutions to 11 concentrations and spotted into the wells of an assay plate in a total volume of 150 nL DMSO per well. A 2× enzyme mix was prepared by diluting GDP-bound, His-tagged KRAS G12C to 25 nM in assay buffer. 10 μL/well of 2× enzyme mix was added to all wells, and the plate was sealed and incubated overnight (18 hr) at 23° C. 4×SOS1/GDP and 4×SOS1/GTP were prepared in assay buffer. 5 μL/well of 4×SOS1/GDP mix was added to negative control wells, 5 μL/well of 4×SOS1/GTP mix was added to the remaining wells, and the plate was further incubated at 23° C. for 1 hr. Finally, FLAG-tagged Raf-RBD is added to the reaction mixture along with a pair of FRET donor- and acceptor-conjugated antibodies specific for the FLAG-tagged Raf-RBD and His-tagged KRAS G12C proteins. A 4× Raf-RBD/Tb-anti-FLAG/D2-anti-His mix was prepared in assay buffer, and 5 μL/well of the mix was added to all wells, followed by incubation at room temperature for 2 hr. The TR-FRET signals, which increase with association of KRAS G12C and Raf-RBD, were measured on a Perkin Elmer Envision 2104 plate reader, and data were analyzed by non-linear regression to obtain IC50 values for inhibition by compounds. Table 2 includes results of the assay of Method III. ‘+++’ indicates IC50 values ≤300 nM, ‘++’ indicates IC50 values between 300 nM-3 μM, and ‘+’ indicates IC50 values ≥3 μM.
Background: TR-FRET usually uses a lanthanide donor and a delayed reading to cut background.

SMILES strings stand for the structures. pIC50: −log10 of the molar value.

Chain of KRAS G12C protein (P01116 1-188 isoform P01116-2 G12C): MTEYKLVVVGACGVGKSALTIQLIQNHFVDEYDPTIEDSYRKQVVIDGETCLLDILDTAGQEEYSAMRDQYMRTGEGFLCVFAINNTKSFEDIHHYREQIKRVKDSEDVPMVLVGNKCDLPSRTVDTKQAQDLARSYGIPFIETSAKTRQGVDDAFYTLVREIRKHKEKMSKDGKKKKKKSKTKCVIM

As usually defined, the pIC50 is −log10 of the IC50, conventionally taken in molar units. A high value points to a low IC50. In turn, `C=CC(=O)N1CCN(c2c(S(C)(=O)=O)c(=O)n(-c3c(C)ccnc3C(C)C)c3nc(-c4c(O)cccc4F)c(F)cc23)C[C@@H]1CC#N` (single isomer, unassigned) [135 (Isomer A)] gave a pIC50 of at most 5.52. On to `C=CC(=O)N1CCN(c2c(S(C)(=O)=O)c(=O)n(-c3c(C)ccnc3C(C)C)c3nc(-c4c(O)cccc4F)c(F)cc23)C[C@H]1C` (single isomer, unassigned) [143 (Isomer A)], for which the pIC50 is 5.52 to 6.52. `C=CC(=O)N1CCN(c2c(S(C)(=O)=O)c(=O)n(-c3c(C)ccnc3C(C)C)c3nc(-c4c(O)cccc4F)c(F)cc23)C[C@H]1C` (single isomer, unassigned) [143 (Isomer B)] showed a pIC50 of at least 6.52.

The compound `C=CC(=O)N1CCN(c2c(S(C)(=O)=O)c(=O)n(-c3c(C)ccnc3C(C)C)c3c(F)c(-c4c(O)cccc4F)c(Cl)cc23)CC1` (single isomer, unassigned) [176 (Isomer A), 4-(4-acryloylpiperazin-1-yl)-6-chloro-8-fluoro-7-(2-fluoro-6-hydroxyphenyl)-1-(2-isopropyl-4-methylpyridin-3-yl)-3-(methylsulfonyl)quinolin-2(1H)-one] had a pIC50 of at most 5.52. Take `C=CC(=O)N1CCN(c2c(S(C)(=O)=O)c(=O)n(-c3c(C)ccnc3C(C)C)c3c(F)c(-c4c(O)cccc4F)c(Cl)cc23)CC1` (single isomer, unassigned) [176 (Isomer B), 4-(4-acryloylpiperazin-1-yl)-6-chloro-8-fluoro-7-(2-fluoro-6-hydroxyphenyl)-1-(2-isopropyl-4-methylpyridin-3-yl)-3-(methylsulfonyl)quinolin-2(1H)-one]: the pIC50 is at least 6.52. In turn, `C=CC(=O)N1CCN(c2c(S(C)(=O)=O)c(=O)n(-c3c(C)ccnc3C(C)C)c3c(F)c(-c4c(O)cccc4F)c(Cl)cc23)CC1` (single isomer, unassigned) [176 (Isomer C), 4-(4-acryloylpiperazin-1-yl)-6-chloro-8-fluoro-7-(2-fluoro-6-hydroxyphenyl)-1-(2-isopropyl-4-methylpyridin-3-yl)-3-(methylsulfonyl)quinolin-2(1H)-one] had a pIC50 of 5.52 to 6.52. Next, `C=CC(=O)N1CCN(c2c(S(C)(=O)=O)c(=O)n(-c3c(C)ccnc3C(C)C)c3c(F)c(-c4c(C)ccc5[nH]ncc45)c(Cl)cc23)CC1` (single isomer, unassigned) [187 (Isomer A), 4-(4-acryloylpiperazin-1-yl)-6-chloro-8-fluoro-1-(2-isopropyl-4-methylpyridin-3-yl)-7-(5-methyl-1H-indazol-4-yl)-3-(methylsulfonyl)quinolin-2(1H)-one]: 5.52 to 6.52; `C=CC(=O)N1CCN(c2c(S(C)(=O)=O)c(=O)n(-c3c(C)ccnc3C(C)C)c3c(F)c(-c4c(C)ccc5[nH]ncc45)c(Cl)cc23)CC1` (single isomer, unassigned) [187 (Isomer B), 4-(4-acryloylpiperazin-1-yl)-6-chloro-8-fluoro-1-(2-isopropyl-4-methylpyridin-3-yl)-7-(5-methyl-1H-indazol-4-yl)-3-(methylsulfonyl)quinolin-2(1H)-one]: at least 6.52; `C=CC(=O)N1CCN(c2c(S(C)(=O)=O)c(=O)n(-c3c(C)ccnc3C(C)C)c3c(F)c(-c4c(C)ccc5[nH]ncc45)c(Cl)cc23)CC1` (single isomer, unassigned) [187 (Isomer D), 4-(4-acryloylpiperazin-1-yl)-6-chloro-8-fluoro-1-(2-isopropyl-4-methylpyridin-3-yl)-7-(5-methyl-1H-indazol-4-yl)-3-(methylsulfonyl)quinolin-2(1H)-one]: at most 5.52. The compound `C=CC(=O)N1CCN(c2c(S(C)(=O)=O)c(=O)n(-c3c(C)ccnc3C(C)C)c3nc(-c4cccc5sc(N)nc45)c(F)cc23)C[C@H]1C` (single isomer, unassigned) [249 (Isomer B)] gave a pIC50 of 5.52 to 6.52.

The compound `C=CC(=O)N1CCN(c2c(S(C)(=O)=O)c(=O)n(-c3c(C)ccnc3C(C)C)c3nc(-c4cccc5sc(N)nc45)c(F)cc23)CC1` (single isomer, unassigned) [250 (Isomer B), 4-(4-acryloylpiperazin-1-yl)-7-(2-aminobenzo[d]thiazol-4-yl)-6-fluoro-1-(2-isopropyl-4-methylpyridin-3-yl)-3-(methylsulfonyl)-1,8-naphthyridin-2(1H)-one] gave a pIC50 of 5.52 to 6.52.

`C=CC(=O)N1CCN(c2c(S(C)(=O)=O)c(=O)n(-c3c(C)ccnc3C(C)C)c3c(F)c(-c4cccc5sc(N)nc45)c(Cl)cc23)CC1` (single isomer, unassigned) [252 (Isomer A), 4-(4-acryloylpiperazin-1-yl)-7-(2-aminobenzo[d]thiazol-4-yl)-6-chloro-8-fluoro-1-(2-isopropyl-4-methylpyridin-3-yl)-3-(methylsulfonyl)quinolin-2(1H)-one] showed a pIC50 of at least 6.52. Next, `C=CC(=O)N1CCN(c2c(S(C)(=O)=O)c(=O)n(-c3c(C)ccnc3C(C)C)c3c(F)c(-c4cccc5sc(N)nc45)c(Cl)cc23)CC1` (single isomer, unassigned) [252 (Isomer B), 4-(4-acryloylpiperazin-1-yl)-7-(2-aminobenzo[d]thiazol-4-yl)-6-chloro-8-fluoro-1-(2-isopropyl-4-methylpyridin-3-yl)-3-(methylsulfonyl)quinolin-2(1H)-one]: at least 6.52; `C=CC(=O)N1CCN(c2c(S(C)(=O)=O)c(=O)n(-c3c(C)ccnc3C(C)C)c3c(F)c(-c4cccc5sc(N)nc45)c(Cl)cc23)CC1` (single isomer, unassigned) [252 (Isomer C), 4-(4-acryloylpiperazin-1-yl)-7-(2-aminobenzo[d]thiazol-4-yl)-6-chloro-8-fluoro-1-(2-isopropyl-4-methylpyridin-3-yl)-3-(methylsulfonyl)quinolin-2(1H)-one]: 5.52 to 6.52; `C=CC(=O)N1CCN(c2c(C(=O)NC)c(=O)n(-c3c(C)ccnc3C(C)C)c3nc(-c4cccc5sc(N)nc45)c(F)cc23)C[C@H]1C` (single isomer, unassigned) [253 (Isomer A)]: at least 6.52. Compound `C=CC(=O)N1CCN(c2c(C(=O)NC)c(=O)n(-c3c(C)ccnc3C(C)C)c3nc(-c4cccc5sc(N)nc45)c(F)cc23)CC1` (single isomer, unassigned) [254 (Isomer B), 4-(4-acryloylpiperazin-1-yl)-7-(2-aminobenzo[d]thiazol-4-yl)-6-fluoro-1-(2-isopropyl-4-methylpyridin-3-yl)-N-methyl-2-oxo-1,2-dihydro-1,8-naphthyridine-3-carboxamide] gave a pIC50 of at least 6.52. `C=CC(=O)N1CCC(n2c(=O)c(=O)n(-c3c(C)ccnc3C(C)C)c3nc(-c4c(O)cccc4F)c(F)cc32)C(C)C1` (single isomer, unassigned) [294 (Isomer A), 1-(1-acryloyl-3-methylpiperidin-4-yl)-7-fluoro-6-(2-fluoro-6-hydroxyphenyl)-4-(2-isopropyl-4-methylpyridin-3-yl)-1,4-dihydropyrido[2,3-b]pyrazine-2,3-dione] showed a negative logarithm of the IC50 (pIC50) of at most 5.52. As for `C=CC(=O)N1CCC(n2c(=O)c(=O)n(-c3c(C)ccnc3C(C)C)c3nc(-c4c(O)cccc4F)c(F)cc32)C(C)C1` (single isomer, unassigned) [294 (Isomer E), 1-(1-acryloyl-3-methylpiperidin-4-yl)-7-fluoro-6-(2-fluoro-6-hydroxyphenyl)-4-(2-isopropyl-4-methylpyridin-3-yl)-1,4-dihydropyrido[2,3-b]pyrazine-2,3-dione], the pIC50 was at most 5.52. As to `C=CC(=O)N1CCC(n2c(=O)c(=O)n(-c3c(C)ccnc3C(C)C)c3nc(-c4c(O)cccc4F)c(F)cc32)C(C)C1` (single isomer, unassigned) [294 (Isomer F), 1-(1-acryloyl-3-methylpiperidin-4-yl)-7-fluoro-6-(2-fluoro-6-hydroxyphenyl)-4-(2-isopropyl-4-methylpyridin-3-yl)-1,4-dihydropyrido[2,3-b]pyrazine-2,3-dione], the pIC50 was 5.52 to 6.52.
